Results: patent US20050026836A1, “Composition for the treatment of damaged tissue” (priority 1999, published 2005)

Legend:
Format in all cases: biochemical
[1] = biological target: T1, catalytic domain human MMP-1 (Homo sapiens, UniProt P03956); experiment: MMP-1 fluorogenic inhibition assay; settings: * limited by compound solubility; read-out: Calculated Ki(nM) MMP-1
T1 construct: made in house
T1 sequence (P03956 100-269 limits assumed): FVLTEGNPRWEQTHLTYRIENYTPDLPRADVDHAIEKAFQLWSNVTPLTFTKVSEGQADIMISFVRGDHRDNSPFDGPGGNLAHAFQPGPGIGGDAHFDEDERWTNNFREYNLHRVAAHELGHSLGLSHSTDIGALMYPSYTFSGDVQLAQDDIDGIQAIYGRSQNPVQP
Procedure: (§1) All enzymes were pre-activated at 37° C. with aminophenylmercuric acetate (APMA) or trypsin before being made up to the final concentrations used in the assay.
(§2) For MMP-1, the assay buffer used was 50 mM Tris, 200 mM NaCl, 5 mM CaCl2, 20 μM ZnCl2, 0.05% (w/v) Brij 35, pH 7.5. […] For MMP-13, the assay buffer used was 50 mM Tris, pH 7.5, 200 mM NaCl, 5 mM CaCl2, […] and 0.02% (w/v) Brij 35.
The incubation was performed at 37° C. for 60 minutes.
(§3) For MMP-2, the final assay concentrations of inhibitors used were 1000, 800, 600, 400, 200 and 100 nM. For MMP-3, the final assay concentrations of inhibitors used were 5, 4, 3, 2, 1 and 0.5 nM. For MMP-9 and MMP-14, the final assay concentrations of inhibitors used were 5, 4, 3, 2, 1 and 0.5 μM.
All assays were carried out in a black 96-well plate with a final volume of 100 μl in each well. Inhibitors were dissolved in dimethylsulphoxide (DMSO) to 1 mM. Solutions were then serially diluted in buffer to give the final concentrations shown.
(§4) These were estimated using the following equation: IC50=(Ki*[…], where S is the substrate concentration and Km the Michaelis-Menton coefficient. Serine Protease Assays

[2] = biological target: catalytic domain of human MMP-2 (Homo sapiens, UniProt P08253); experiment: MMP-2 fluorogenic inhibition assay; settings: read-out: Calculated Ki(nM) MMP-2
Procedure: as §1, §2
(§5) MMP-2, MMP-3 and MMP-9 inhibition was assayed by incubating activated catalytic domain of human MMP-2, MMP-3 and MMP-9 at 1 nM in assay buffer with 5 μM substrate Mca-Arg-Pro-Lys-Pro-Tyr-Ala-Nva-Trp-Met-Lys(Dnp)-NH2, and six different concentrations of inhibitor. The incubation was performed at 37° C. for 60 minutes.
as §3
All assays were carried out in a black 96-well plate with a final volume of 100 μl in each well. Inhibitors were dissolved in dimethylsulphoxide (DMSO) to 1 mM. Solutions were then serially diluted in buffer to give the final concentrations shown. […]

[3] = biological target: T2, catalytic domain of human MMP-9 (Homo sapiens, UniProt P14780); experiment: MMP-9 fluorogenic inhibition assay; settings: read-out: Calculated Ki(nM) MMP-9
T2 sequence (P14780 with tags, fused parts or gaps DEL216-390 limits assumed): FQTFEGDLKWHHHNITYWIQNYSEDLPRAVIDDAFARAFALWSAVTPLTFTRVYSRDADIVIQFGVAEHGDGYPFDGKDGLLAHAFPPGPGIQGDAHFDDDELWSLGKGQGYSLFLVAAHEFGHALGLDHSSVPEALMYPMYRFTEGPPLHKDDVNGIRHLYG
Procedure: (§6) All enzymes were pre-activated at 37° C. with aminophenylmercuric acetate (APMA) or trypsin before being made up to the final concentrations used in the assay. MMP-1 (30 nM) was activated with 0.93 mM APMA for 20 minutes, MMP-2 (30 nM) was activated with 1.32 mM APMA for 1 hour, MMP-3 (1010 nM) was activated with 1.81 mM APMA for 3 hours or heat activated at 55° C. for three hours, MMP-9 (100 nM) was activated with 2 mM APMA for 2 hours, human MMP-13 (100 nM) was activated with 2 mM APMA for 2 hours, and MMP-14 (900 nM) was activated with 0.9 ng/ml trypsin for 25 minutes, followed by the addition of 4.5 ng/ml trypsin inhibitor.
as §2, with “35. For MMP-14, the assay buffer used was 50 mM Tris, 100 mM NaCl, 10 mM CaCl2, 0.25% (w/v) Brij 35, pH 7.5.” for “35.”
as §5
as §3, with “The final assay concentrations of inhibitors used in the MMP-1 assays to determine Ki were 50, 40, 30, 20, 10 and 5 μM. For MMP-2,” for “For MMP-2,”
(§7) All assays were carried out in a black 96-well plate with a final volume of 100 μl in each well. […] For MMP-2, MMP-3, MMP-9 and MMP-14, fluorescence was read every 2 minutes at […] and 393 nm γem for 1 hour using a Fluorostar fluorimeter (BMG) with BIOLISE software. For MMP-1 assays, the filters used were 355 nm γex and 440 nm γem; fluorescence was read every 2 minutes for 1 hour. […]

[4] = biological target: T3, MMP-13 (Homo sapiens, UniProt P45452); experiment: MMP-13 fluorogenic inhibition assay; settings: estimated from IC50; read-out: Calculated Ki(nM) MMP-13
T3 construct: made in house
Procedure: as §1, §2
Assays were carried out in 96-well microfluor plates. All incubations were performed at 37° C. and fluorescence readings determined at 360 nm γex and 450 nm γem.
For the assay, the fluorescence values at time zero were subtracted from those determined at 15 or 20 minutes. The % response was then calculated by comparison to positive controls (enzyme, buffer and substrate in the absence of inhibitor). IC50 values were then determined using FitCurve (Excel Tessella Stats add-in).
as §4

[5] = biological target: T4, catalytic domain human MMP-14 (Homo sapiens, UniProt P50281); experiment: MMP-14 fluorogenic inhibition assay; settings: read-out: Calculated Ki(nM) MMP-14
T4 construct: made in house
Procedure: as §6
as §2, with “35. For MMP-14, the assay buffer used was 50 mM Tris, 100 mM NaCl, 10 mM CaCl2, 0.25% (w/v) Brij 35, pH 7.5.” for “35.”
MMP-14 inhibition was assayed by incubating activated catalytic domain human MMP-14 at 1 nM in assay buffer with 10 μM Mca-Pro-Leu-Gly-Leu-Dpa-Ala-Arg-NH2 and six concentrations of inhibitor. The incubation was performed at 37° C. for 60 minutes.
as §3, with “The final assay concentrations of inhibitors used in the MMP-1 assays to determine Ki were 50, 40, 30, 20, 10 and 5 μM. For MMP-2,” for “For MMP-2,”
as §7, with “well. Inhibitors were dissolved in dimethylsulphoxide (DMSO) to 1 mM.” for “well.”

[6] = biological target: T5, MMP-3 (Homo sapiens, UniProt P08254); experiment: Reduction of MMP-3-catalysed degradation of KGF-2; settings: MMP-3 / KGF-2, read-out: Percentage inhibition of proteolysis
T5 construct: made in house
T5 sequence (P08254 100-272 limits assumed): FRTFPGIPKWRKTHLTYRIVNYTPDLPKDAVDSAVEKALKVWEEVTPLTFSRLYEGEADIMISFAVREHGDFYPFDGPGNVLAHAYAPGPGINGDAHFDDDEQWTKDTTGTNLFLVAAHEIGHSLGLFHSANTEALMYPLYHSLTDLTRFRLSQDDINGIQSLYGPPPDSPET

catalytic domain of human MMP-2, sequence (P08253 with tags, fused parts or gaps DEL222-396 limits assumed): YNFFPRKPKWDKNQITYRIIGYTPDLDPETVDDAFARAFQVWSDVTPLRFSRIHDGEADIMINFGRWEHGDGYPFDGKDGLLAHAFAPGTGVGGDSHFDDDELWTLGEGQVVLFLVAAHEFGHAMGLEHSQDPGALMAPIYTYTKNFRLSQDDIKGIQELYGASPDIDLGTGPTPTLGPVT

Ki [1]: > 19400 nM | Ki [2]: 35200 nM | Ki [3]: 52400 nM | Ki [4]: 857 nM | Ki [5]: 35500 nM | inhibition at 0.1 µM ([6]; inhibitor 0.1 μM): 45% | inhibition at 1 µM ([6]; inhibitor 1 μM): 30% | inhibition at 10 µM ([6]; inhibitor 10 μM): 62% | inhibition at 100 µM ([6]; inhibitor 100 μM): 68%
SMILES: COC[C@@H](NC(=O)[C@@H](NC(=O)[C@H](CCCc1ccc(-c2cccc(OC)c2)c(C)c1)CC(=O)O)C(C)(C)C)c1ccccc1 [compound 9454, (3R)-3-({[(1S)-2,2-Dimethyl-1-({[(1S)-2-methoxy-1-phenylethyl]amino}carbonyl)propyl]amino}carbonyl)-6-(3′-methoxy-2-methylbiphen-4-yl)hexanoic acid]
